Measurements as given in ChEMBL document CHEMBL1201862, “PubChem BioAssay data set” (2004).
Each block holds one compound with its values, some of them ahead of it. Activity calls are given as the source filed them.

Columns and labels:
[1] = target: Large T antigen (Simian virus 40, UniProt P03070); type: functional, Betapolyomavirus macacae;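 note: Confirmatory-stage PubChem screen for compounds that inhibit SV40 T antigen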
[2] = target: Induced myeloid leukemia cell differentiation protein Mcl-1 (Homo sapiens, UniProt Q07820); experiment: MCL1-BIM BH3 interaction inhibitors, dose response, biochemical, fluorescence polarization, BIM-BH3 peptide, 1536-well (AID 2217)
[3] = target: T1, Estrogen receptor beta (Homo sapiens, UniProt Q92731); experiment: ERβ–SRC-3 coactivator interaction inhibitors, confirmation, orthogonal assay, biochemical, ELISA, streptavidin-HRP readout (AID 1060)
[4] = target: Bcl-2-like protein 1 (Homo sapiens, UniProt Q07817); experiment: BCL-XL inhibitors, dose response, selectivity assay for MCL1 inhibitor project, biochemical, fluorescence polarization, 1536-well (AID 2218)
[5] = target: T2, Dual specificity protein phosphatase 6 (Rattus norvegicus, UniProt Q64346); experiment: MKP-3 phosphatase inhibitors, primary screen, biochemical, rat enzyme, in vitro (AID 425)
T2 sequence (Q64346 whole entry): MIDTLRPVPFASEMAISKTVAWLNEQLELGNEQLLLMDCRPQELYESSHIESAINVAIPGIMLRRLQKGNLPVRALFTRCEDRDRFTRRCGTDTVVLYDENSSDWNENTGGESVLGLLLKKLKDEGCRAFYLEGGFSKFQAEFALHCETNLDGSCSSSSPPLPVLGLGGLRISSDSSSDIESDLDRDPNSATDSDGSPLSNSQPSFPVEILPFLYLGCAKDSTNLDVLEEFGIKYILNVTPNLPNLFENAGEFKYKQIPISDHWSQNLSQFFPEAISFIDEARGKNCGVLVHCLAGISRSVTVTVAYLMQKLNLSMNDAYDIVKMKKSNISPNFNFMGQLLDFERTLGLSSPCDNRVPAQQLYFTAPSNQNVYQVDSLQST

[6] = target: T3, Bcl-2-related protein A1 (Mus musculus, UniProt Q07440); type: functional;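 note: confirmatory dose–response counterscreen on Bfl-1, used to check hits from a UBC13 polyubiquitin inhibitor campaign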
T3 sequence (Q07440 whole entry): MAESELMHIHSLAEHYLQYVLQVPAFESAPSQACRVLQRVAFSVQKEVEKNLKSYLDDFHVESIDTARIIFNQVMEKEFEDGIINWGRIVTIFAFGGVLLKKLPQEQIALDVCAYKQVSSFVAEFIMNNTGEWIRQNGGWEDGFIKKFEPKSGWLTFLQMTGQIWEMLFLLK

[7] = target: T4, Ubiquitin-conjugating enzyme E2 N (Homo sapiens, UniProt P61088); type: functional
T4 sequence (P61088 whole entry): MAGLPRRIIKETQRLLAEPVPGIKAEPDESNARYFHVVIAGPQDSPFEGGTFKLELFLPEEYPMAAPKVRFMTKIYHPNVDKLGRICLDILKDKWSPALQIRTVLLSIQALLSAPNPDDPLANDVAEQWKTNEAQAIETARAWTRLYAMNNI

[8] = target: T4, Ubiquitin-conjugating enzyme E2 N; type: functional; remark: listed apart in the source
[9] = target: T5, Histone-lysine N-methyltransferase NSD2 (Homo sapiens, UniProt O96028); type: biochemical
T5 sequence (O96028 whole entry): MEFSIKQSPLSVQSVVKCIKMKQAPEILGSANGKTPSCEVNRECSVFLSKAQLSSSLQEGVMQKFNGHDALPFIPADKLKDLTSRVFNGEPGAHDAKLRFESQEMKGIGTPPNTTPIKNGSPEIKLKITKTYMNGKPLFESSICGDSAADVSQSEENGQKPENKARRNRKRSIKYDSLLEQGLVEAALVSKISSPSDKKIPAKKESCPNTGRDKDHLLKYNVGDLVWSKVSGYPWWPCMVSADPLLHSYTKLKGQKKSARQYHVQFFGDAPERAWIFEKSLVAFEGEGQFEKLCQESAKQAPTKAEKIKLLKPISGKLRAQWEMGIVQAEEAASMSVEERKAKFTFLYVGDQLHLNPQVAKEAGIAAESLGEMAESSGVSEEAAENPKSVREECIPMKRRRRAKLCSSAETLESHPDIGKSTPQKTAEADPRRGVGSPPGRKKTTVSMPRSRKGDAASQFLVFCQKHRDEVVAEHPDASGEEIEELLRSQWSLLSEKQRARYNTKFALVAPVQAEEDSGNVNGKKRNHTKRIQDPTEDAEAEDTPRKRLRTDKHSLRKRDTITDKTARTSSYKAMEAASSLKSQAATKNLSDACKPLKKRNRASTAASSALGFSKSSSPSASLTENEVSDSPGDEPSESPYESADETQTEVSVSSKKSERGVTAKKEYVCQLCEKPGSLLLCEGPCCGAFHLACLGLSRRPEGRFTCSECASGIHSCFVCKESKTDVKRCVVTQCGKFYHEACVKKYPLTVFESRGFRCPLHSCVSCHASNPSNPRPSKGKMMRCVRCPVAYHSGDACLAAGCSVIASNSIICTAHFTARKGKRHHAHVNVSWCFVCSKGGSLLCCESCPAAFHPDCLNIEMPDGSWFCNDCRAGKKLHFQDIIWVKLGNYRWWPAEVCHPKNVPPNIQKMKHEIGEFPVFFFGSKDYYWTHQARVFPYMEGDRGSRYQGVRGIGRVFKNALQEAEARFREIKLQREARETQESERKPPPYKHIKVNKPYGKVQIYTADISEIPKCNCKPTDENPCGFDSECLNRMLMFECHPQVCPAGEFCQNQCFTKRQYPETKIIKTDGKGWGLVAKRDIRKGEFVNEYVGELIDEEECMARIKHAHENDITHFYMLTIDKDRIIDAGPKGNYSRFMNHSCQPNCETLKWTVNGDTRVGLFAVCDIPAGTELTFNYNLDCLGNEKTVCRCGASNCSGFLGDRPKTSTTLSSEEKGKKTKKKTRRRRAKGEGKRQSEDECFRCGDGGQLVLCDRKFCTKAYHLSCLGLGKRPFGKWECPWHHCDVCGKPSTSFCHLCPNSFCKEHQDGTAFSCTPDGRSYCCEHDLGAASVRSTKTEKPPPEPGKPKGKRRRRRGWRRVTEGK

[10] = target: T6, Mannose-6-phosphate isomerase (Homo sapiens, UniProt P34949); experiment: human PMI inhibitors, high substrate, primary screen, biochemical, fluorescence intensity, high mannose 6-phosphate (AID 1220)
T6 sequence (P34949 whole entry): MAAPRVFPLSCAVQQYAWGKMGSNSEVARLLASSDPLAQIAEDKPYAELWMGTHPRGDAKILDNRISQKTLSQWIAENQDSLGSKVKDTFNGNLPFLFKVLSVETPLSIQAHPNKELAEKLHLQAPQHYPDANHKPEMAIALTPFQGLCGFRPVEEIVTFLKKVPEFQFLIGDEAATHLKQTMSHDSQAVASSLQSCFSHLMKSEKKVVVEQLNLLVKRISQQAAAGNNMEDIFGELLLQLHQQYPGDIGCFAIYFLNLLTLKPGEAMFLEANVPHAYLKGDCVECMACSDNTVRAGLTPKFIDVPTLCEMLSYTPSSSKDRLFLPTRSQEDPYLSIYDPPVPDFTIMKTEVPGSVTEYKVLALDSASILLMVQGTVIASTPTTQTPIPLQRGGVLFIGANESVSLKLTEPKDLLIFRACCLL

[11] = target: Glucose-6-phosphate 1-dehydrogenase (Homo sapiens, UniProt P11413); experiment: human G6PD enzyme inhibitors, dose response, selectivity assay for P. falciparum G6PD inhibitor project, biochemical, fluorescence (AID 504792); type: functional
[12] = target: Genome polyprotein (dengue virus type 2, UniProt P29990); experiment: Dengue-2 NS5 methyltransferase inhibitors, primary screen, biochemical, confirmation dose response (AID 588689); type: functional
[13] = target: Albumin (Bos taurus, UniProt P02769); experiment: Counterscreen for inhibitors of T-cell receptor (TCR)-CD3 interaction: Fluorescence-based biochemical high throughput dose response assay to identify inhibitors of T-cell receptor (TCR)-CD3 interaction using a TAMRA-labeled BSA probe.; type: functional
[14] = cytotoxicity in HPDE-C7 cells, cell-based, fluorescence, HTS (AID 430); type: functional; conditions: Homo sapiens
[15] = cytotoxicity in KRAS-transformed pancreatic duct cells, primary screen, cell-based, fluorescence, HTS (AID 431); type: functional; conditions: Homo sapiens;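 note: cell line used: HPDE-C7K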
[16] = Luminescence Cell-Based Dose Confirmation HTS to Identify Inhibitors of Polyadenylation.; type: functional
[17] = target: Leucine aminopeptidase (Plasmodium falciparum 3D7, UniProt Q8IL11); experiment: P. falciparum M17LAP inhibitors, primary screen, biochemical, fluorogenic H-Leu-NHMec substrate, 1536-well (AID 1619); type: functional
[18] = target: T7, Estrogen receptor (Homo sapiens, UniProt P03372);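 note: potency for inhibiting coactivator peptide recruitment to the receptor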
T7 sequence (P03372 whole entry): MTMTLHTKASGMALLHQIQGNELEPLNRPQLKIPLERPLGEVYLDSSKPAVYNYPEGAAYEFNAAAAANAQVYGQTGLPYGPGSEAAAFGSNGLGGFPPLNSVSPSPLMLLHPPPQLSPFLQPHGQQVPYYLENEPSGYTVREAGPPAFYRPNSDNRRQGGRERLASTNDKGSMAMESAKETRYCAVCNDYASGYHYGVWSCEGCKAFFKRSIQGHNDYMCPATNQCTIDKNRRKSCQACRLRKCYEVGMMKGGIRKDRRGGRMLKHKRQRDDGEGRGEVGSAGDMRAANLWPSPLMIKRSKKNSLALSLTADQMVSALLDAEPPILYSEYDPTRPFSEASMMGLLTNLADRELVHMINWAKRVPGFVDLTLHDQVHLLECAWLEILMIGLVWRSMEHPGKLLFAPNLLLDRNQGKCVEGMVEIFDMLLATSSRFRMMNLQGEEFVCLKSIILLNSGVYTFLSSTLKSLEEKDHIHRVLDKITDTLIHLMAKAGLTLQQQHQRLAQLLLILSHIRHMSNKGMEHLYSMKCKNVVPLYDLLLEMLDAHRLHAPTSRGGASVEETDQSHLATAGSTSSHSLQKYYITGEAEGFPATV

[19] = target: T1, Estrogen receptor beta
[20] = target: Intestinal-type alkaline phosphatase (Mus musculus, UniProt P24822); experiment: PubChem AID 488785; type: functional
[21] = target: T8, Alkaline phosphatase, tissue-nonspecific isozyme (Homo sapiens, UniProt P05186); experiment: TNAP enzyme inhibition by screening hits, dose response, selectivity assay for mouse IAP inhibitor project, biochemical, human TNAP, uHTS hits (AID 488906); type: functional
T8 sequence (P05186 whole entry): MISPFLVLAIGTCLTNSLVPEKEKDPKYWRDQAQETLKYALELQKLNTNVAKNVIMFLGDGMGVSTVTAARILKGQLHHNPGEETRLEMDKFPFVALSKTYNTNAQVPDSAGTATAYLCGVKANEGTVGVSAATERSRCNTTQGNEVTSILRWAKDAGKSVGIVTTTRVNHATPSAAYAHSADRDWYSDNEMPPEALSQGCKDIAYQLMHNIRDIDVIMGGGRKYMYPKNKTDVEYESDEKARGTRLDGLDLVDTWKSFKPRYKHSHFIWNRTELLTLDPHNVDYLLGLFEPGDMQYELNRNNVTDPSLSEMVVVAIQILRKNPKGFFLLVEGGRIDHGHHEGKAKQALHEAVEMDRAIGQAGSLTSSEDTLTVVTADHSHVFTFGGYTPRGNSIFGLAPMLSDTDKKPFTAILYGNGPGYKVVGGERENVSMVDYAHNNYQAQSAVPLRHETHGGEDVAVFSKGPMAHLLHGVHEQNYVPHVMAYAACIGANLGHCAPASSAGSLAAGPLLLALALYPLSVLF

[22] = target: Intestinal-type alkaline phosphatase (Homo sapiens, UniProt P09923); experiment: inhibition of human intestinal alkaline phosphatase – biochemical, dose response (AID 488876); type: functional
[23] = target: T9, Carboxy-terminal domain RNA polymerase II polypeptide A small phosphatase 1 (Homo sapiens, UniProt Q9GZU7); experiment: inhibitors of CTDSP1, concentration-response testing, biochemical assay, absorbance-based, actives from ultra-high-throughput screening (AID 540297); type: functional
T9 sequence (Q9GZU7 whole entry): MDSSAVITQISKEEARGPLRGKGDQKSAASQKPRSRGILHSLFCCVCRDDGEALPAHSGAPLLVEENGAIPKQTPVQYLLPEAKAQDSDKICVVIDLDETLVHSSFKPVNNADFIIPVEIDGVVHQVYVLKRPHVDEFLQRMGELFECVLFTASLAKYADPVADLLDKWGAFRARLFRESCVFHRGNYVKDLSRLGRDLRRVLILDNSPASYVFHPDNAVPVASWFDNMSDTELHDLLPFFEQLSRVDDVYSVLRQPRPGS

T1 sequence (Q92731 whole entry): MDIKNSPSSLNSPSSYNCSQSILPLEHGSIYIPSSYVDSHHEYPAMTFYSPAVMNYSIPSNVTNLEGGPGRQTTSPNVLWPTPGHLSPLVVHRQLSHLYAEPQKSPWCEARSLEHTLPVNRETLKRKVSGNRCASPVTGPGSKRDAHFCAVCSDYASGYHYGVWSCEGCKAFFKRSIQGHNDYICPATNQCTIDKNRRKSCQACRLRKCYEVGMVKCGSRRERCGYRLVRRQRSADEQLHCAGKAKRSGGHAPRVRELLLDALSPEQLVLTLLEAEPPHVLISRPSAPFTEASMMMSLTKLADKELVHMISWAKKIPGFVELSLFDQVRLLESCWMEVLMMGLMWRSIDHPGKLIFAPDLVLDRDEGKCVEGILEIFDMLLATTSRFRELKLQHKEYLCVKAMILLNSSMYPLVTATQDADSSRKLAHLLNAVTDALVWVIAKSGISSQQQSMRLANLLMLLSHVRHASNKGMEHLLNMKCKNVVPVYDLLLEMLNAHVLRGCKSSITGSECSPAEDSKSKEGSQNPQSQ
Induced myeloid leukemia cell differentiation protein Mcl-1, sequence (Q07820 whole entry): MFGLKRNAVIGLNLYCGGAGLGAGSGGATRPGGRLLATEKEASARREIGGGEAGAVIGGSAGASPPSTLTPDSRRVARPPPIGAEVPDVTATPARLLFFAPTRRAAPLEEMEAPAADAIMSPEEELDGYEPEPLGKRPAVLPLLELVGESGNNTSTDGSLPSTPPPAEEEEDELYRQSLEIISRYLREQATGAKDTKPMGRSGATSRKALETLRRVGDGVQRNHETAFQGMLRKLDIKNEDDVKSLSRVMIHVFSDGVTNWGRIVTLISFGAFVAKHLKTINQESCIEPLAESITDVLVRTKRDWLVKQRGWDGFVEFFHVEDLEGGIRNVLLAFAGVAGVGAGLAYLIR
Bcl-2-like protein 1, sequence (Q07817 whole entry): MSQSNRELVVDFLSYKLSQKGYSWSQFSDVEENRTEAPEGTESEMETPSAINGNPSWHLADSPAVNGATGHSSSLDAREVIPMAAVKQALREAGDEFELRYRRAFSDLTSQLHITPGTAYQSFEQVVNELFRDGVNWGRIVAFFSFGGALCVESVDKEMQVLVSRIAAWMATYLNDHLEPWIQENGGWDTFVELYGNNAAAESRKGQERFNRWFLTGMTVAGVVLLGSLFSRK
Large T antigen, sequence (P03070 whole entry): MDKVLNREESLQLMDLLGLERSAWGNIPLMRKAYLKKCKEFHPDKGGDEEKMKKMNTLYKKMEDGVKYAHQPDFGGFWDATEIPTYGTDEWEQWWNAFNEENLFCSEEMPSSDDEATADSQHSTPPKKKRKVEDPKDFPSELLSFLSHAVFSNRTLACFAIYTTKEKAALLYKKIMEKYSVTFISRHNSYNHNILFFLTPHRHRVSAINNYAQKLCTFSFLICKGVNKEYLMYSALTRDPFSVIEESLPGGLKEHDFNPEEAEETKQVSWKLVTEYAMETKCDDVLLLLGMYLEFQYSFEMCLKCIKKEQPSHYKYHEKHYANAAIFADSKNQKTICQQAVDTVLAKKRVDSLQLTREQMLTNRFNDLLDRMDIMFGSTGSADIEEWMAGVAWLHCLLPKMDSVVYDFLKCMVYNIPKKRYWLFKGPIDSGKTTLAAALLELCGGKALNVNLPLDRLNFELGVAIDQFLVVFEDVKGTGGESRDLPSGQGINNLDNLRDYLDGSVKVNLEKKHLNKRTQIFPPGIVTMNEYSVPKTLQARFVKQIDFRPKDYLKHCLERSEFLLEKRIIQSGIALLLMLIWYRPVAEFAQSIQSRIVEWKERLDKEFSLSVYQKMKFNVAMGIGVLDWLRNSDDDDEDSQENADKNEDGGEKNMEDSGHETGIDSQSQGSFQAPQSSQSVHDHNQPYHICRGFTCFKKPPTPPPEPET
Genome polyprotein, sequence (P29990 2492-3391 limits assumed): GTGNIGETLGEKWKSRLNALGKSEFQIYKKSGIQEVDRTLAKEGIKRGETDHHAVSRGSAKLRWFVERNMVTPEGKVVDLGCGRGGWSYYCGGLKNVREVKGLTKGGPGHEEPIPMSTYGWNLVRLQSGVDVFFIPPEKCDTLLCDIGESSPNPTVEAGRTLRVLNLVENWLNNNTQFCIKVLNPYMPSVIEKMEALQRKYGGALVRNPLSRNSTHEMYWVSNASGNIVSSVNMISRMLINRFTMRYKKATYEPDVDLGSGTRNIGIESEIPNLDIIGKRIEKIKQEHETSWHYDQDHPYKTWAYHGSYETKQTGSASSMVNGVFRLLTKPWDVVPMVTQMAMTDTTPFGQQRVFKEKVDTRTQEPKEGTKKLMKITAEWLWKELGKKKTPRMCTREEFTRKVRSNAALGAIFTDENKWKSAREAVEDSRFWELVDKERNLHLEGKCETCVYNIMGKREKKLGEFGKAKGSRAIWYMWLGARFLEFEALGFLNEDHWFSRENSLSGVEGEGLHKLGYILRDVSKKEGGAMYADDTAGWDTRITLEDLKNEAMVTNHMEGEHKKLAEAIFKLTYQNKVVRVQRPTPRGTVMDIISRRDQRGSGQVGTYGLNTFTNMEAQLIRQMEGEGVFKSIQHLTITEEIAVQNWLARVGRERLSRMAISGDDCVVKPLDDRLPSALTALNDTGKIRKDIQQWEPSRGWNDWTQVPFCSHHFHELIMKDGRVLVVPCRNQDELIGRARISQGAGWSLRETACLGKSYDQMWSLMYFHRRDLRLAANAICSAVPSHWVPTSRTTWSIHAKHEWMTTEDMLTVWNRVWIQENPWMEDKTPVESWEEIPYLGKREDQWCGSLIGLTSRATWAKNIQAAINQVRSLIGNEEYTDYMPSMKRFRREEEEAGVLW
Intestinal-type alkaline phosphatase (Homo sapiens, UniProt P09923), sequence (P09923 whole entry, the tested form may be a part): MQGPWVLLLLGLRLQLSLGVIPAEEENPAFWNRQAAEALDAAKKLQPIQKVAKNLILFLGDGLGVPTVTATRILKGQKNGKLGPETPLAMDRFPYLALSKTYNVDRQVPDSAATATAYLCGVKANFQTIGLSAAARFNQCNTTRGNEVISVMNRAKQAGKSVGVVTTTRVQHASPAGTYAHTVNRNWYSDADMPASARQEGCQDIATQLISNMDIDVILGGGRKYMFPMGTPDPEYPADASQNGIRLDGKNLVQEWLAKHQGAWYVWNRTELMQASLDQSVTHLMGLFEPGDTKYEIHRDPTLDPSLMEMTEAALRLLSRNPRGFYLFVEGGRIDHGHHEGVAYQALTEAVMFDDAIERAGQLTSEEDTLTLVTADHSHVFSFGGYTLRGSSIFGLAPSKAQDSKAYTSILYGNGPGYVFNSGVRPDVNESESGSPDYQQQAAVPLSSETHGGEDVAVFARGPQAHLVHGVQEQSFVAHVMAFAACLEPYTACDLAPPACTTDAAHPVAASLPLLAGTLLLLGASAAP
Intestinal-type alkaline phosphatase (Mus musculus, UniProt P24822), sequence (P24822 whole entry): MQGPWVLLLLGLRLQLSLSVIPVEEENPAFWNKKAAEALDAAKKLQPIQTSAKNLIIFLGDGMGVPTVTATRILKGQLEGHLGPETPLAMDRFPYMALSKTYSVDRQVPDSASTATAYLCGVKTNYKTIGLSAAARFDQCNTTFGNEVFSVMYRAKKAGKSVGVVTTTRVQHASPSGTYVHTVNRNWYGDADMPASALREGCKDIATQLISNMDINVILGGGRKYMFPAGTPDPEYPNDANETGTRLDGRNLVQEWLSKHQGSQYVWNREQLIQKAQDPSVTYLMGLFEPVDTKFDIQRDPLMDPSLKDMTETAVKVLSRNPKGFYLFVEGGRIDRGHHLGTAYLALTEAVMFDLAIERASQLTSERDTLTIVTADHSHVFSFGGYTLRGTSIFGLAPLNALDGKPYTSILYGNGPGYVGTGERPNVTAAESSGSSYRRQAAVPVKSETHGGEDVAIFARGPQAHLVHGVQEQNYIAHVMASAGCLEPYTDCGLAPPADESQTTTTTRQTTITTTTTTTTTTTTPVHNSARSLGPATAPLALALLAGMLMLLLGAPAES
Leucine aminopeptidase, sequence (Q8IL11 whole entry): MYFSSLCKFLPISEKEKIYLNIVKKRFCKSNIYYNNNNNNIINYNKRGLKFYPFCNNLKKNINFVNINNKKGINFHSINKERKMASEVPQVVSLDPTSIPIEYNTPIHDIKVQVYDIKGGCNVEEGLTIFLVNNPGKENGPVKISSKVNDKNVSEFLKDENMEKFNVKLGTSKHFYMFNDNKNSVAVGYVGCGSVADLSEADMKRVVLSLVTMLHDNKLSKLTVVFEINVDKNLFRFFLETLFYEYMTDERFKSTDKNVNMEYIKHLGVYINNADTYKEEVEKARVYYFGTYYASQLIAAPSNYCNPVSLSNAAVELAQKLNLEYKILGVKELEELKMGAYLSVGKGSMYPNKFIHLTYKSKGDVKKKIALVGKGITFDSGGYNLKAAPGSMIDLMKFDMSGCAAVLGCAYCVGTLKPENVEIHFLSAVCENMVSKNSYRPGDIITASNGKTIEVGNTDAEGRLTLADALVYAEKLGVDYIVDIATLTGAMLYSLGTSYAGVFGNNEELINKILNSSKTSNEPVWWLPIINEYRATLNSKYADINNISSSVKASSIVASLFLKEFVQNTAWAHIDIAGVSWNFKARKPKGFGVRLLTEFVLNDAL
Albumin, sequence (P02769 whole entry): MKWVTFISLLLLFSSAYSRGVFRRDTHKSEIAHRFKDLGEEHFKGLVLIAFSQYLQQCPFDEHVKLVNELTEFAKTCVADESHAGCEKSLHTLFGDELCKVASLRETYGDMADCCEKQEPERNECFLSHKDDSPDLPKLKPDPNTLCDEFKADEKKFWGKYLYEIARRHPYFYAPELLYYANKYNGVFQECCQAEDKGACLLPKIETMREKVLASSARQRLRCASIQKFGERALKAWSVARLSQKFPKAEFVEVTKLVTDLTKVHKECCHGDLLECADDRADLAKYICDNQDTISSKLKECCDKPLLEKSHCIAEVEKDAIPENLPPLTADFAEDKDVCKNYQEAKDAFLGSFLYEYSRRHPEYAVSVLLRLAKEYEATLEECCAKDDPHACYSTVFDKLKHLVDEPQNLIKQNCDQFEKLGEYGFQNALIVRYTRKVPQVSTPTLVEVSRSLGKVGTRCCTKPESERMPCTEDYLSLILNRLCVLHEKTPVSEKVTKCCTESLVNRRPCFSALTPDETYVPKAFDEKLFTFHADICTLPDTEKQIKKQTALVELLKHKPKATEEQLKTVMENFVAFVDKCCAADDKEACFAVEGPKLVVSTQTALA

IC50 [17]: 4.71 µM (active)
SMILES: CCCCc1ccc(C(=O)NC(C(=O)O)C(C)C)cc1 (stereo unspecified)

IC50 [18]: 18.7 µM (active) | IC50 [19]: 3.85 µM (active) | IC50 [3]: 6.16 µM (not active) | IC50 [20]: 11.3 µM (active) | IC50 [21]: > 100 µM (inactive) | IC50 [22]: > 100 µM (inactive)
SMILES: CN(c1ccccc1C(=O)O)S(=O)(=O)c1ccc2c3c(cccc13)C(=O)N2

IC50 [18]: 9.49 µM (active) | IC50 [19]: 5.52 µM (active) | IC50 [3]: 0.127 µM (not active) | IC50 [23]: 3.87 µM (active)
SMILES: CC1CCN(S(=O)(=O)c2ccc(NC(=O)Cc3cccs3)cc2)CC1

Further lines, the compound ahead of its results:

SMILES: c1coc(-c2nc(-c3ccco3)c(-c3ccco3)nc2-c2ccco2)c1
IC50 [1]: 76.4 µM (active) | IC50 [2]: > 1.34 µM (active) | IC50 [3]: > 50 µM (not active) | IC50 [4]: > 109 µM (not active) | IC50 [5]: > 10 µM (not active) | IC50 [6]: 0.36 µM (active) | IC50 [7]: 3.79 µM (active) | IC50 [8]: 8.49 µM (active) | AC50 [9]: > 20 µM (inactive)

SMILES: O=C(CCc1ccc(S(=O)(=O)N2CCOCC2)cc1)N/N=C/c1ccc(O)c(O)c1O
IC50 [2]: 2.33 µM (active) | IC50 [4]: > 109 µM (not active) | IC50 [10]: 16.4 µM (active) | IC50 [11]: 48.7 µM (inactive) | IC50 [12]: 51.3 µM (active) | IC50 [13]: > 94.1 µM (inactive)

SMILES: Cc1ccc(C(=O)Nc2cccc(C(=O)NCc3ccccc3)c2)o1
EC50 [14]: 16.6 µM (active) | EC50 [15]: 12.4 µM (active)

SMILES: Cc1ccc2nc(-c3cccc(NC(=O)c4ccc5c(c4)OCCO5)c3)oc2c1
EC50 [14]: 6.12 µM (active) | EC50 [15]: 6.12 µM (active)

SMILES: O=C(COC(=O)Cc1ccc(S(=O)(=O)N2CCOCC2)s1)NCc1ccccc1
EC50 [16]: 39.8 µM (active)
